Measured values reported in US20220213099A1, “PRODRUG COMPOUNDS” (BRISTOL-MYERS SQUIBB COMPANY, priority 2019, published 2022).
≈ marks a conversion by molar mass, not a printed value. Where a name gives a salt, the structure may show the parent alone. Read-outs that look alike come from different tables or passages of the source.

Columns and labels:
[1] = Solubility evaluation in aqueous buffer; assay type: physicochemical; details: about 24 hours equilibration; for solubility: aqueous buffer, 25 °C, thermodynamic from solid
Experimental: The solid powder of an individual prodrug was equilibrated in aqueous buffers of pH 1, 4 and 6.5 at 25° C. for about 24 hours. After equilibration, the excess solid was separated by filtration using 0.45 μm membrane filter and the filtrate was collected in suitable glass vial. The filtrate was diluted appropriately using respective buffers/diluent and analyzed by a reversed phase LC method with UV detection.

[2] = Stability evaluation in aqueous buffer; assay type: physicochemical; details: about 50 μg/mL, about 15% v/v acetonitrile; for half-life: aqueous buffer, 37° C.
Experimental: The stability study of an individual prodrug was conducted with about 50 μg/mL solutions in aqueous buffers of pH 1 (0.1 M HCl), 4 (acetate buffer) and 6.5 (phosphate buffer) at 37° C. for 24 hours. About 15% v/v acetonitrile was used in these pH buffers as a co-solvent to obtain clear solutions of prodrugs. The sample analysis was carried out using a generic reversed phase liquid chromatographic (LC) method with UV detection. The area percent (AP) loss of the prodrug peak was quantified as a function of time. The appearance of parent peak was identified from the chromatographic retention time. The half-life (t1/2, h) of the prodrug was calculated by using a pseudo-first order equation from a AP loss vs time plot.

[3] = pH 1, simulated gastric fluid, aqueous buffer pH 1, 25° C., read-out: Solubility (mg/mL) at 25° C. pH 1
[4] = pH 4, aqueous buffer, aqueous buffer pH 4, 25° C., read-out: Solubility (mg/mL) at 25° C. pH 4
[5] = pH 6.5, aqueous buffer, aqueous buffer pH 6.5, 25° C., read-out: Solubility (mg/mL) at 25° C. pH 6.5
[6] = pH 1, pH 1 (0.1 M HCl), read-out: Stability (t1/2, h) at 37° C. pH 1 (converted)
[7] = pH 4, pH 4 (acetate buffer), read-out: Stability (t1/2, h) at 37° C. pH 4 (converted)
[8] = pH 6.5, pH 6.5 (phosphate buffer), read-out: Stability (t1/2, h) at 37° C. pH 6.5 (converted)
[9] = aqueous buffer pH 4, 25° C., ditrifluoroacetate
[10] = aqueous buffer pH 6.5, 25° C., ditrifluoroacetate

solubility [1, 3] [mg/mL] | solubility [1, 4] [mg/mL] | solubility [1, 5] [mg/mL] | half-life [2, 6] [h] | half-life [2, 7] [h] | half-life [2, 8] [h] | Solubility (mg/mL) at 25° C. pH 1 ([1]; aqueous buffer pH 1, 25° C., ditrifluoroacetate) [mg/mL] | Solubility (mg/mL) at 25° C. pH 4 [1, 9] [mg/mL] | Solubility (mg/mL) at 25° C. pH 6.5 [1, 10] [mg/mL] | Stability (t1/2, h) at 37° C. pH 1 ([2]; pH 1 (0.1 M HCl)) [h] | Stability (t1/2, h) at 37° C. pH 4 ([2]; pH 4 (acetate buffer), ditrifluoroacetate) [h] | Stability (t1/2, h) at 37° C. pH 6.5 ([2]; pH 6.5 (phosphate buffer), ditrifluoroacetate) [h] | Structure (SMILES)
> 1.09 | 0.7 (≈ 1050 µM) | > 1.01 | 157 | 207 | 65 | – | – | – | – | – | – | Cc1c(-c2c(C(C)C)c3cc(C4CCN(CC(N)=O)CC4)ccc3n2C(=O)CN(C)C(=O)OCOP(=O)(O)O)cn2ncnc2c1C [Example 19, (Phosphonooxy)methyl (2-(5-(1-(2-amino-2-oxoethyl)piperidin-4-yl)-2-(7,8-dimethyl-[1,2,4]triazolo[1,5-a]pyridin-6-yl)-3-isopropyl-1H-indol-1-yl)-2-oxoethyl)(methyl) carbamate]
> 1.51 | > 0.98 | – | 179 | 85 | 1.6 | – | – | – | – | – | – | CNCC(=O)OCc1cccnc1N(C)C(=O)OC(C)[N+]1(CC(N)=O)CCC(c2ccc3[nH]c(-c4cn5ncnc5c(C)c4C)c(C(C)C)c3c2)CC1 (stereo not shown) [Example 14, 1-(2-Amino-2-oxoethyl)-4-(2-(7,8-dimethyl-[1,2,4]triazolo[1,5-a]pyridin-6-yl)-3-isopropyl-1H-indol-5-yl)-1-(1-((methyl(3-(((methylglycyl)oxy)methyl)pyridin-2-yl)carbamoyl)oxy)ethyl)piperidin-1-ium ditrifluoroacetate]
0.43 | 0.1 | 0.12 | 347 | > 500 | > 500 | – | – | – | – | – | – | Cc1c(-c2c(C(C)C)c3cc(C4CCN(CC(N)=O)CC4)ccc3n2C(=O)CCCOP(=O)(O)O)cn2ncnc2c1C [Example 10, 4-(5-(1-(2-Amino-2-oxoethyl)piperidin-4-yl)-2-(7,8-dimethyl-[1,2,4]triazolo[1,5-a]pyridin-6-yl)-3-isopropyl-1H-indol-1-yl)-4-oxobutyl dihydrogen phosphate]
> 0.82 | > 0.85 | – | > 500 | 9.6 | 0.1 | – | – | – | – | – | – | CNCCN(C)C(=O)OC[N+]1(CC(N)=O)CCC(c2ccc3[nH]c(-c4cn5ncnc5c(C)c4C)c(C(C)C)c3c2)CC1 (stereo not shown) [Example 23, 1-(2-Amino-2-oxoethyl)-4-(2-(7,8-dimethyl-[1,2,4]triazolo[1,5-a]pyridin-6-yl)-3-isopropyl-1H-indol-5-yl)-1-(((methyl(2-(methylamino)ethyl)carbamoyl)oxy)methyl) piperidin-1-ium trifluoroacetate]
> 2.43 | > 2.68 | > 2.44 | > 500 | > 500 | 99 | – | – | – | – | – | – | Cc1c(-c2c(C(C)C)c3cc(C4CCN(CC(N)=O)CC4)ccc3n2C(=O)OC[C@@H]2CCCN2)cn2ncnc2c1C [Example 3, (S)-Pyrrolidin-2-ylmethyl 5-(1-(2-amino-2-oxoethyl)piperidin-4-yl)-2-(7,8-dimethyl-[1,2,4]triazolo[1,5-a]pyridin-6-yl)-3-isopropyl-1H-indole-1-carboxylate]

Second part, the compound before the results:

Structure (SMILES) | solubility [1, 3] [mg/mL] | solubility [1, 4] [mg/mL] | solubility [1, 5] [mg/mL] | half-life [2, 6] [h] | half-life [2, 7] [h] | half-life [2, 8] [h] | Solubility (mg/mL) at 25° C. pH 1 ([1]; aqueous buffer pH 1, 25° C., ditrifluoroacetate) [mg/mL] | Solubility (mg/mL) at 25° C. pH 4 [1, 9] [mg/mL] | Solubility (mg/mL) at 25° C. pH 6.5 [1, 10] [mg/mL] | Stability (t1/2, h) at 37° C. pH 1 ([2]; pH 1 (0.1 M HCl)) [h] | Stability (t1/2, h) at 37° C. pH 4 ([2]; pH 4 (acetate buffer), ditrifluoroacetate) [h] | Stability (t1/2, h) at 37° C. pH 6.5 ([2]; pH 6.5 (phosphate buffer), ditrifluoroacetate) [h]
Cc1c(-c2c(C(C)C)c3cc(C4CCN(CC(N)=O)CC4)ccc3n2C(=O)OC(C)OC(=O)C2(N)CC2)cn2ncnc2c1C (single isomer, unassigned) [Example 7, 1-((1-Aminocyclopropane-1-carbonyl)oxy)ethyl 5-(1-(2-amino-2-oxoethyl)piperidin-4-yl)-2-(7,8-dimethyl-[1,2,4]triazolo[1,5-a]pyridin-6-yl)-3-isopropyl-1H-indole-1-carboxylate ditrifluoroacetate] | – | – | – | – | – | – | >1.49 | >1.21 | 0.34 | >500 | >500 | 193
Cc1c(-c2c(C(C)C)c3cc(C4CCN(CC(N)=O)CC4)ccc3n2C(=O)OC(C)OC(=O)C2(N)CC2)cn2ncnc2c1C (single isomer, unassigned) [Example 6, 1-((1-Aminocyclopropane-1-carbonyl)oxy)ethyl 5-(1-(2-amino-2-oxoethyl)piperidin-4-yl)-2-(7,8-dimethyl-[1,2,4]triazolo[1,5-a]pyridin-6-yl)-3-isopropyl-1H-indole-1-carboxylate ditrifluoroacetate] | > 1.32 | – | – | > 500 | 415 | 108 | – | 0.52 | >1.22 | – | – | –
Cc1c(-c2c(C(C)C)c3cc(C4CCN(CC(N)=O)CC4)ccc3n2SC[C@H](N)C(=O)O)cn2ncnc2c1C [Example 11, S-(5-(1-(2-Amino-2-oxoethyl)piperidin-4-yl)-2-(7,8-dimethyl-[1,2,4]triazolo[1,5-a]pyridin-6-yl)-3-isopropyl-1H-indol-1-yl)-L-cysteine] | > 1.03 | 0.007 (≈ 12.4 µM) | > 1.02 | > 500 | > 500 | 154 | – | – | – | – | – | –
Cc1c(-c2[nH]c3ccc(C4CCN(CC(N)=O)CC4)cc3c2C(C)C)cn2nc[n+](COC(=O)N(C)CCOP(=O)(O)O)c2c1C (single isomer, unassigned) [Example 21, 6-(5-(1-(2-amino-2-oxoethyl)piperidin-4-yl)-3-isopropyl-1H-indol-2-yl)-7,8-dimethyl-1-(((methyl(2-(phosphonooxy)ethyl)carbamoyl)oxy)methyl)-[1,2,4]triazolo[1,5-a]pyridin-1-ium trifluoroacetate] | > 1.75 | 0.25 | 0.55 | > 500 | > 500 | > 500 | – | – | – | – | – | –
